Laboratory results from US5112992A, “Production of polycarboxylic acids with hafnium-activated cobalt catalyst” (Amoco Corporation, priority 1991, dated 1992).

Tests used:
[1] = Metal remaining soluble in filtrate (pyromellitic acid) after durene oxidation
[2] = Solubility of hafnium and zirconium tetrabromides in acetic acid-water mixtures in presence of trimellitic acid
Description: Solubility of hafnium compounds, i.e., hafnium bromide, was determined in acetic acid-water mixtures in the presence of trimellitic acid and pyromellitic acid. Hafnium tetrabromide, 0.0012M, was heated in a 20% water-acetic acid solution to reflux. Trimellitic acid (0.71M) was added.

- metal remained soluble ([1]; Example V: durene oxidation reactor effluent cooled to room temperature and filtered): 36%
- % Soluble ([1]; Metal in filtrate after durene oxidation): 32%
- Appearance of solution after adding trimellitic acid ([2]; 0.0012M tetrabromide in 20% water-acetic acid at reflux, trimellitic acid 0.71M added): remained clear
- % Soluble ([2]; Metal + trimellitic acid in 20% H2O-HOAc at 25° C., solution cooled and solids filtered off, molar basis): 36%
- % Soluble ([2]; Metal + trimellitic acid in 20% H2O-HOAc at 100° C.): 100%
SMILES: [Br][Hf]([Br])([Br])[Br] [Hafnium tetrabromide]
